{"source": "patent US9540336B2", "about": "“Therapeutic agents” (priority 2011, dated 2017)", "key": {"Bacillus thuringiensis": {"system": "Bacillus thuringiensis", "test": "Antimicrobial activity (MIC)", "type": "cell-based"}, "[1]": {"system": "Staphylococcus aureus MRSA", "test": "Antimicrobial activity (MIC)", "type": "cell-based"}, "Enterococcus faecalis": {"system": "Enterococcus faecalis", "test": "Antimicrobial activity (MIC)", "type": "cell-based"}, "Enterococcus faecium": {"system": "Enterococcus faecium", "test": "Antimicrobial activity (MIC)", "type": "cell-based"}, "[2]": {"test": "Solubility in buffered water as a function of pH (centrifugation, spectroscopy)", "type": "physicochemical"}, "M. smegmatis membranes [3]": {"system": "M. smegmatis membranes", "type": "biochemical"}, "E. coli membranes": {"system": "E. coli membranes", "test": "Restoration of NADH oxidation and ROS production, E. coli membranes", "type": "biochemical"}, "[4]": {"system": "P. denitrificans membranes", "test": "Restoration of NADH oxidation and ROS production, P. denitrificans membranes", "type": "biochemical, Paracoccus denitrificans"}, "P. aeruginosa membranes": {"system": "P. aeruginosa membranes", "test": "Restoration of NADH oxidation and ROS production, P. aeruginosa membranes", "type": "biochemical, Pseudomonas aeruginosa"}, "rat mitochondria": {"system": "rat mitochondria", "test": "Restoration of NADH oxidation, rat mitochondria", "type": "biochemical", "conditions": "KCN-inhibited rat mitochondria"}, "S. aureus membranes": {"system": "S. aureus membranes", "test": "Restoration of NADH oxidation and ROS production, S. aureus membranes", "type": "biochemical, Staphylococcus aureus"}, "[5]": {"system": "submitochondrial membranes from S. cerevisiae", "test": "Restoration of NADH oxidation and ROS production, S. cerevisiae submitochondrial membranes", "type": "biochemical"}, "M. smegmatis membranes [6]": {"system": "M. smegmatis membranes", "test": "Reduction and reoxidation (redox cycling) with M. smegmatis membranes and NADH", "type": "biochemical"}, "M. smegmatis membranes [7]": {"system": "M. smegmatis membranes", "test": "ROS production by M. smegmatis log-phase membranes (Amplex Red/HRP/superoxide dismutase)", "type": "biochemical"}, "[8]": {"target": "recombinant M. tuberculosis NDH-2 (Mycobacterium tuberculosis, UniProt P95160)", "sequence (P95160 whole entry, looked up)": "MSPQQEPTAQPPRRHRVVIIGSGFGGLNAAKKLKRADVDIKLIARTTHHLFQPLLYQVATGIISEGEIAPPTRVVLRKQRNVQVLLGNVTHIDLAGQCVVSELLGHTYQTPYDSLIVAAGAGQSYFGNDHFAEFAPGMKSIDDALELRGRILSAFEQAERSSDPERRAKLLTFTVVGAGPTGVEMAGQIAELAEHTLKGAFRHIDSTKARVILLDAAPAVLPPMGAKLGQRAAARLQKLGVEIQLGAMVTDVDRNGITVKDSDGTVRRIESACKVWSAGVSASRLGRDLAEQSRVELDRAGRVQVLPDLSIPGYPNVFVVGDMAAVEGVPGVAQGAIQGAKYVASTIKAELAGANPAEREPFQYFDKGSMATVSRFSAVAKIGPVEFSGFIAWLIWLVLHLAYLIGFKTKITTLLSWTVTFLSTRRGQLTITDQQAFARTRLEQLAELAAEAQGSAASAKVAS", "type": "biochemical"}, "M. smegmatis mc2 155": {"system": "M. smegmatis mc2 155", "test": "M. smegmatis growth inhibition (colony counts on 7H9 agar)", "type": "cell-based", "conditions": "for effect of antioxidants (α-tocopherol, 4-hydroxy-TEMPO, N-acetylcysteine) on growth inhibition: 0.5 μg/ml CFZ or 10 μg/ml INH"}, "[9]": {"conditions": "cited from earlier work"}, "[10]": {"test": "Solubility and cationic/uncharged species in detergents (Triton X-100, Na-lauroyl sarcosine)"}, "[11]": {"system": "E. faecalis membranes (NDH-2)", "test": "E. faecalis membranes: NADH-Q0 reductase activity and ROS production", "type": "biochemical"}}, "note": "Several values for one entry are separate records, joined by “and”; a condition that tells them apart may be missing. Equal values may be shown once. Entries after “also recorded” stand apart in the source; their conditions may differ."}
{"smiles": "CC(C)N=c1cc2n(-c3ccc(Cl)cc3)c3ccccc3nc-2cc1Nc1ccc(Cl)cc1", "note": "[CFZ, 3-(4-chloroanilino)-10-(4-chlorophenyl)-2,10-dihydro-2-(isopropylimino)-phenazine]", "values": [{"measurement": "MIC", "setting": "Bacillus thuringiensis", "result": 5, "unit": "µM"}, {"measurement": "MIC", "setting": "[1]", "result": 2.5, "unit": "µM"}, {"measurement": "MIC", "setting": "Enterococcus faecalis", "result": 10, "unit": "µM"}, {"measurement": "MIC", "setting": "Enterococcus faecium", "result": 10, "unit": "µM"}, {"measurement": "fraction of CFZ remaining in solution", "setting": "[2]; 50 mM MOPS/Na+ pH 6.5, 2.0 mM MgCl2, 1.18 μg/ml, 40 min", "result": "~70", "unit": "%"}, {"measurement": "soluble compound in water", "setting": "[2]; above pH 7.5", "result": "not detectable"}, {"measurement": "solubility", "setting": "[2]; buffered water (0.1 M buffer), 23 °C, pH 7, aqueous buffer, kinetic from dmso stock, neutral pH, 50 μM added, overnight, centrifuged", "result": "< 2", "unit": "µM"}, {"measurement": "solubility in water", "setting": "[2]; pH 3.5", "result": "virtually all the drug remained in the supernatant"}, {"measurement": "soluble compound in water", "setting": "[2]; pH 6.5", "result": "barely detectable"}, {"measurement": "fraction of CFZ remaining soluble", "setting": "[2]; reaction buffer pH 6.5, 1.2 μg/ml, 40-min incubation", "result": "About two-thirds"}, {"measurement": "CFZ-mediated NADH oxidase rate relative to rate in absence of KCN", "setting": "M. smegmatis membranes [3]", "result": "25-70%"}, {"measurement": "fraction of NADH oxidase activity restored (maximum)", "setting": "M. smegmatis membranes [3]", "result": "0.25 and 0.40-0.70"}, {"measurement": "restoration of NADH oxidation", "setting": "M. smegmatis membranes [3]", "result": "restored a significant level of NADH oxidation"}, {"measurement": "ROS production", "setting": "E. coli membranes; E. coli membranes", "result": "did not exhibit significant CFZ-mediated NADH oxidation or ROS production"}, {"measurement": "restoration of NADH oxidation", "setting": "E. coli membranes; KCN-inhibited E. coli membranes", "result": "did not exhibit significant CFZ-mediated NADH oxidation or ROS production; also recorded: no restoration of NADH oxidation; also recorded: little, if any, restoration of NADH oxidation"}, {"measurement": "restoration of NADH oxidation", "setting": "[4]; KCN-inhibited P. denitrificans membranes", "result": "did not exhibit significant CFZ-mediated NADH oxidation or ROS production; also recorded: little, if any, restoration of NADH oxidation"}, {"measurement": "ROS production", "setting": "[4]; P. denitrificans membranes", "result": "did not exhibit significant CFZ-mediated NADH oxidation or ROS production"}, {"measurement": "restoration of NADH oxidation", "setting": "P. aeruginosa membranes; KCN-inhibited P. aeruginosa membranes", "result": "did not exhibit significant CFZ-mediated NADH oxidation or ROS production; also recorded: little, if any, restoration of NADH oxidation"}, {"measurement": "ROS production", "setting": "P. aeruginosa membranes; P. aeruginosa membranes", "result": "did not exhibit significant CFZ-mediated NADH oxidation or ROS production"}, {"measurement": "restoration of NADH oxidation", "setting": "rat mitochondria", "result": "little, if any, restoration of NADH oxidation"}, {"measurement": "restoration of NADH oxidation", "setting": "S. aureus membranes; KCN-inhibited S. aureus membranes", "result": "significant restoration of NADH oxidation"}, {"measurement": "ROS production", "setting": "S. aureus membranes; S. aureus membranes", "result": "able to oxidize NADH and generate ROS"}, {"measurement": "inhibitory effect of high levels on mediated NADH oxidation", "setting": "S. aureus membranes; S. aureus membranes", "result": "inhibitory"}, {"measurement": "restoration of NADH oxidation", "setting": "[5]; KCN-inhibited S. cerevisiae submitochondrial membranes", "result": "significant restoration of NADH oxidation"}, {"measurement": "ROS production", "setting": "[5]; S. cerevisiae submitochondrial particles", "result": "able to oxidize NADH and generate ROS"}, {"measurement": "observed first order rate constant of reoxidation of reduced CFZ", "setting": "M. smegmatis membranes [6]; 0.5% SDS (final) added", "result": "1.40 ± 0.01", "unit": "min⁻¹"}, {"measurement": "reduction on NADH addition with membranes", "setting": "M. smegmatis membranes [6]; M. smegmatis membranes, NADH", "result": "marked loss of CFZ absorbance"}, {"measurement": "observed first (pseudo) order rate constant of reoxidation of reduced CFZ", "setting": "M. smegmatis membranes [6]; after agitation, no SDS", "result": "1.25 ± 0.01", "unit": "min⁻¹"}, {"measurement": "second order rate constant for reoxidation of reduced CFZ by O2", "setting": "M. smegmatis membranes [6]; assuming 250 μM O2", "result": "~100 M⁻¹ s⁻¹ and 83 M⁻¹ s⁻¹"}, {"measurement": "increase of rate of ROS production over background", "setting": "M. smegmatis membranes [7]; log-phase membranes, NADH, 0.5 μg CFZ", "result": 11.5, "unit": "fold"}, {"measurement": "ROS (resorufin) production rate relative to rate of NADH consumption / electron transport chain", "setting": "M. smegmatis membranes [7]; maximum, 0.1-0.2 μg CFZ/μg membrane protein, no KCN", "result": "~18", "unit": "%"}, {"measurement": "CFZ reduction and ROS production with succinate instead of NADH", "setting": "M. smegmatis membranes [7]; succinate as electron donor", "result": "neither CFZ reduction nor ROS production was observed"}, {"measurement": "ROS generation with purified NDH-2 and NADH", "setting": "[8]", "result": "generation of ROS"}, {"measurement": "reduction by purified NDH-2", "setting": "[8]; pH 6.5", "result": "purified NDH-2 reduces CFZ"}, {"measurement": "effect of antioxidants (α-tocopherol, 4-hydroxy-TEMPO, N-acetylcysteine) on growth inhibition", "setting": "M. smegmatis mc2 155", "result": "nullified the growth inhibitory activity; also recorded: prevented"}, {"measurement": "colony formation of M. smegmatis on agar", "setting": "M. smegmatis mc2 155; 0.5 μg/ml CFZ or more, ≧4 days, control 670±100 colonies", "result": "undetectable; also recorded: Virtually no colonies"}, {"measurement": "redox potential Em, cationic species", "setting": "[9]; Kovacic et al. 1989", "result": "−180", "unit": "mV"}, {"measurement": "redox potential Em, uncharged species", "setting": "[9]; Kovacic et al. 1989", "result": "−950", "unit": "mV"}, {"measurement": "pKa (commonly quoted)", "setting": "[9]; unclear origin", "result": 8.5}, {"measurement": "pKa", "setting": "[10]; buffered Triton X-100 detergent solution", "result": 6.8}, {"measurement": "solubility", "setting": "[10]; pH 3.5, aqueous with cosolvent or surfactant or cyclodextrin", "result": "≥ 50", "unit": "µM"}, {"measurement": "solubility", "setting": "[10]; pH 5, aqueous with cosolvent or surfactant or cyclodextrin", "result": "≥ 50", "unit": "µM"}]}
{"smiles": "CN(C)CCCN1c2ccccc2Sc2ccc(Cl)cc21", "note": "[CPZ, chlorpromazin]", "values": [{"measurement": "effect on NADH-Q0 reductase activity (NADH oxidation)", "setting": "[11]; 400 μM CPZ, 0.2 mM NADH, 2 mM Q0", "result": "completely ceased"}, {"measurement": "inhibition of KS6-mediated ROS production", "setting": "[11]; E. faecalis membranes", "result": "complete inhibition"}]}
{"smiles": "NNC(=O)c1ccncc1", "note": "[INH, isoniazid]", "values": [{"measurement": "effect of antioxidants (α-tocopherol, 4-hydroxy-TEMPO, N-acetylcysteine) on growth inhibition", "setting": "M. smegmatis mc2 155", "result": "not altered; also recorded: not sensitive to antioxidants"}, {"measurement": "M. smegmatis growth", "setting": "M. smegmatis mc2 155; 10 μg/ml", "result": "completely inhibited"}]}
{"smiles": "CN1CCN(CCCN2c3ccccc3Sc3ccc(C(F)(F)F)cc32)CC1", "note": "[TPZ, trifluoperazine]", "values": [{"measurement": "inhibition of NADH oxidase activity", "setting": "M. smegmatis membranes [3]", "result": "inhibited CFZ-mediated NADH oxidase activity"}, {"measurement": "effect on CFZ-mediated ROS production", "setting": "M. smegmatis membranes [7]; TPZ 0.2 mM", "result": "sensitive to TPZ"}, {"measurement": "effect on ROS formation by purified NDH-2 with CFZ", "setting": "[8]", "result": "inhibited"}]}
